In brackets after ≈: the same amount, converted by molar mass.
Columns and labels:
[1] = tested on: HT-29; assay: Cytotoxicity against human HT-29 cells by MTT assay; assay type: functional, cell-based
[2] = tested on: A549; assay: Cytotoxicity against human A549 cells by MTT assay; assay type: functional, cell-based

SMILES: COc1cc2ccc1Oc1cc(ccc1O)CC(O[C@@H]1O[C@H](CO)[C@@H](O)[C@H](O)[C@H]1O)C(=O)CCCC2 (some centres undefined)
- IC50 [1]: > 50 µg/mL
- IC50 [2]: > 50 µg/mL

SMILES: COC1=CC(=O)c2c(O)cccc2C1=O
- IC50 [1]: 2.63 µg/mL (≈ 12.9 µM)
- IC50 [2]: 0.08 µg/mL (≈ 0.392 µM)

SMILES: COC(=O)c1cc(O[C@H]2O[C@@H](CO)[C@H](O)[C@@H](O)[C@@H]2O)c2c(O)cccc2c1O
- IC50 [1]: 8.06 µg/mL (≈ 20.3 µM)
- IC50 [2]: 7.79 µg/mL (≈ 19.7 µM)

SMILES: COC(=O)C(O)(c1cc2c(c3oc([C@]4(C)C[C@@H]4C)cc(=O)c13)C(=O)c1c(ccc([C@H]3C[C@](C)(N(C)C)[C@H](O[C@@H]4C[C@H](OC)[C@H](O)[C@@H](C)O4)[C@H](C)O3)c1O)C2=O)[C@H]1O[C@H](C)[C@@H](O)[C@@H](OC)[C@@H]1O (some centres undefined) [ALTROMYCIN B]
- IC50 [1]: 3.98 µg/mL (≈ 4.31 µM)

SMILES: COc1cc(C(=O)OC[C@H]2O[C@@H](Oc3ccc(O)c4c3C(O)CCC4=O)[C@H](O)[C@@H](O)[C@@H]2O)cc(OC)c1O (some centres undefined)
- IC50 [1]: > 50 µg/mL
- IC50 [2]: > 50 µg/mL

From ChEMBL document CHEMBL1150886, “Cytotoxic compounds from the roots of Juglans mandshurica” (J Nat Prod, 1998)
